Patent US20250197864A1, “LNCRNA TRANSCRIPTS IN MELANOMAGENESIS” (The Regents of the University of California, priority 2021, published 2025)

Tested on: gene expression in D04 melanoma cells
Assay: RNA-Seq differential expression analysis (DESeq2)
Assay type: cell-based, human
Conditions: up-regulated list
Method: Total RNA was isolated using the RNeasy mini Kit (QIAGEN) following the manufacturer's protocol. Quality check for extracted RNA was done using 2100 Bioanalyzer (Agilent Technologies, USA) or Tapestation System (Agilent Technologies, USA). […] For samples used for identification of MAPK-responsive lncRNAs, paired-end, 101-bp sequencing was performed by Centrillion Genomic Services (Centrillion Biosciences, USA) on an Illumina HiSeq 2000. For DE gene analysis of ASO-transfected D04 samples, paired-end, 2×150-bp sequencing was performed by Genewiz (USA) on a Illumina HiSeq.
Sequence reads were aligned to the human genome (hg19) using TopHat (Version 2.0.11).
Differential expression (DE) analysis was done using DESeq2. Differentially expressed genes were defined by more than 1.5-fold changes (log 2 >0.58 or <−0.58) in expression with FDR<0.05. GO term analysis was done using DAVID Functional Annotation Clustering analysis.
To examine the biomolecular changes upon TRASH-inhibition in melanoma, D04 cells were treated with TRASH-ASOs (SEQ ID NO:15) and Control-ASOs and RNA was extracted and used for RNA-Seq. […] These GO terms consisted of genes encoding growth factors, tyrosine kinases, G protein coupled receptor subunits, and collagen subunits. Scatter plot diagram showing differential gene expression after TRASH-ASO treatment compared to Control-ASO treatment. (cut-off for significance was adjusted p-value <0.05). Data was obtained from RNA-Seq of D04 melanoma cells, treatment period was three days. (FIG. 5c)

In the case of “GACTGGAGATAATTAA (gapmer, pattern not given here) [SEQ ID NO: 15, GapmeR ASO targeting AC004540.4 (TRASH), exon region of both isoforms; used for in vitro experiments]”, the “log2FoldChange CSRNP1” value (ENSG00000144655) is reported as 0.6637, the “log2FoldChange MYH15” value (ENSG00000144821) is reported as 1.163 and the “log2FoldChange PHLDB2” value (ENSG00000144824) is reported as 0.8277. For the same sequence, the “log2FoldChange EAF2” value (ENSG00000145088) was 0.8471, the “log2FoldChange ECE2” value (ENSG00000145194) was 0.8019 and the “log2FoldChange DDIT4L” value (ENSG00000145358) was 0.9547. The “log2FoldChange GFOD1” value (ENSG00000145990) was 0.6187, the “log2FoldChange TRIM7” value (ENSG00000146054) was 0.7787 and the “log2FoldChange PM20D2” value (ENSG00000146281) was 0.6289. For the same sequence, the “log2FoldChange EGFR” value (ENSG00000146648) was 0.8305, the “log2FoldChange GCNA” value (ENSG00000147174) was 0.8797 and the “log2FoldChange MAL2” value (ENSG00000147676) was 0.6498. The “log2FoldChange RGS10” value (ENSG00000148908) was 0.5971, the “log2FoldChange ST14” value (ENSG00000149418) was 1.17 and the “log2FoldChange PDCD4” value (ENSG00000150593) was 0.586. The “log2FoldChange IL18” value (ENSG00000150782) was 0.6212, the “log2FoldChange NOCT” value (ENSG00000151014) was 0.6791 and the “log2FoldChange JMY” value (ENSG00000152409) was 0.9323. For the same sequence, the “log2FoldChange NR4A2” value (ENSG00000153234) was 0.7664, the “log2FoldChange CCDC148” value (ENSG00000153237) was 0.745 and the “log2FoldChange FAM167A” value (ENSG00000154319) was 0.6771. For the same sequence, the “log2FoldChange LY96” value (ENSG00000154589) was 0.6345, the “log2FoldChange HKDC1” value (ENSG00000156510) was 0.717 and the “log2FoldChange CD109” value (ENSG00000156535) was 0.6418. For the same sequence, the “log2FoldChange NRG1” value (ENSG00000157168) was 0.8358, the “log2FoldChange WDR66” value (ENSG00000158023) was 1.174 and the “log2FoldChange TPRG1L” value (ENSG00000158109) was 0.6032. For the same sequence, the “log2FoldChange XDH” value (ENSG00000158125) was 0.6451, the “log2FoldChange GDPD5” value (ENSG00000158555) was 0.6005 and the “log2FoldChange LAD1” value (ENSG00000159166) was 1.038. The “log2FoldChange STC1” value (ENSG00000159167) was 0.8653, the “log2FoldChange KLHL21” value (ENSG00000162413) was 0.8059 and the “log2FoldChange FBLIM1” value (ENSG00000162458) was 0.7967. For the same sequence, the “log2FoldChange ATF3” value (ENSG00000162772) was 0.6827, the “log2FoldChange COQ8A” value (ENSG00000163050) was 0.9489 and the “log2FoldChange CRYGC” value (ENSG00000163254) was 1.014. For the same sequence, the “log2FoldChange PAQR3” value (ENSG00000163291) was 0.7134, the “log2FoldChange KBTBD8” value (ENSG00000163376) was 1.017 and the “log2FoldChange IGFN1” value (ENSG00000163395) was 1.134. For the same sequence, the “log2FoldChange NKX6-1” value (ENSG00000163623) was 1.147, the “log2FoldChange PLB1” value (ENSG00000163803) was 0.8869 and the “log2FoldChange LZTFL1” value (ENSG00000163818) was 0.6384. For the same sequence, the “log2FoldChange RAET1E” value (ENSG00000164520) was 1.147, the “log2FoldChange DAGLB” value (ENSG00000164535) was 0.608 and the “log2FoldChange GPR85” value (ENSG00000164604) was 0.7923. The “log2FoldChange SUN3” value (ENSG00000164744) was 0.9518, the “log2FoldChange EN2” value (ENSG00000164778) was 1.028 and the “log2FoldChange FRAT1” value (ENSG00000165879) was 0.9146. For the same sequence, the “log2FoldChange GPR176” value (ENSG00000166073) was 0.7841, the “log2FoldChange SVOP” value (ENSG00000166111) was 1.178 and the “log2FoldChange C16orf71” value (ENSG00000166246) was 0.7026. The “log2FoldChange C16orf46” value (ENSG00000166455) was 0.9764, the “log2FoldChange GREM1” value (ENSG00000166923) was 1.047 and the “log2FoldChange CD3D” value (ENSG00000167286) was 0.767. For the same sequence, the “log2FoldChange AXL” value (ENSG00000167601) was 0.7701, the “log2FoldChange DNAAF3” value (ENSG00000167646) was 0.6547 and the “log2FoldChange SERPINF2” value (ENSG00000167711) was 1.036. The “log2FoldChange KRT80” value (ENSG00000167767) was 0.6697, the “log2FoldChange ABCA3” value (ENSG00000167972) was 0.8489 and the “log2FoldChange CAVIN2” value (ENSG00000168497) was 1.053. The “log2FoldChange IL12A” value (ENSG00000168811) was 0.635, the “log2FoldChange C8orf46” value (ENSG00000169085) was 0.7557 and the “log2FoldChange HSPB3” value (ENSG00000169271) was 0.6385. For the same sequence, the “log2FoldChange ZNF280A” value (ENSG00000169548) was 0.9372, the “log2FoldChange MT1E” value (ENSG00000169715) was 0.8998 and the “log2FoldChange MZB1” value (ENSG00000170476) was 1.158. The “log2FoldChange S1PR1” value (ENSG00000170989) was 0.6805, the “log2FoldChange XAGE3” value (ENSG00000171402) was 0.6996 and the “log2FoldChange ZNF57” value (ENSG00000171970) was 0.6499. The “log2FoldChange NIPAL4” value (ENSG00000172548) was 1.166, the “log2FoldChange MUC13” value (ENSG00000173702) was 1.042 and the “log2FoldChange GOLT1A” value (ENSG00000174567) was 0.9754. For the same sequence, the “log2FoldChange C11orf68” value (ENSG00000175573) was 0.673, the “log2FoldChange TSPEAR” value (ENSG00000175894) was 0.9662 and the “log2FoldChange ENTHD1” value (ENSG00000176177) was 0.5983. The “log2FoldChange ZNF843” value (ENSG00000176723) was 0.9407, the “log2FoldChange RIMKLA” value (ENSG00000177181) was 0.711 and the “log2FoldChange JUN” value (ENSG00000177606) was 0.715. For the same sequence, the “log2FoldChange ZNF619” value (ENSG00000177873) was 0.5884, the “log2FoldChange ZNF114” value (ENSG00000178150) was 0.8507 and the “log2FoldChange KCTD12” value (ENSG00000178695) was 0.7298. For the same sequence, the “log2FoldChange FJX1” value (ENSG00000179431) was 0.6535, the “log2FoldChange PLD6” value (ENSG00000179598) was 0.696 and the “log2FoldChange WDR97” value (ENSG00000179698) was 0.7195. The “log2FoldChange B3GNT3” value (ENSG00000179913) was 0.7904, the “log2FoldChange ANKRD18A” value (ENSG00000180071) was 0.7649 and the “log2FoldChange OXTR” value (ENSG00000180914) was 1.093.
